Reference: ChEMBL document CHEMBL5604063, “ASAP - DENV-2 NS2B-NS3 protease fluorescence dose response” (2024)
“And” between values parts separate entries of the source, which are not always exact repeats. Identical values can stand only once.

What was measured:
[1] = biological target: T1, Genome polyprotein (dengue virus type 2, UniProt P29990); type: functional, Thailand/16681/1984
[2] = biological target: T1, Genome polyprotein; type: functional, Thailand/16681/1984; remark: listed apart in the source

T1 sequence (P29990 1346-1475 limits assumed): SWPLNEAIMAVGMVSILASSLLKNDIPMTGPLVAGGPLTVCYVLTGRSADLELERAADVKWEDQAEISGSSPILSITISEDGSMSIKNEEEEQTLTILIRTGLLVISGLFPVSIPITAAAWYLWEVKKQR
T1 sequence (P29990 1476-2093 limits assumed): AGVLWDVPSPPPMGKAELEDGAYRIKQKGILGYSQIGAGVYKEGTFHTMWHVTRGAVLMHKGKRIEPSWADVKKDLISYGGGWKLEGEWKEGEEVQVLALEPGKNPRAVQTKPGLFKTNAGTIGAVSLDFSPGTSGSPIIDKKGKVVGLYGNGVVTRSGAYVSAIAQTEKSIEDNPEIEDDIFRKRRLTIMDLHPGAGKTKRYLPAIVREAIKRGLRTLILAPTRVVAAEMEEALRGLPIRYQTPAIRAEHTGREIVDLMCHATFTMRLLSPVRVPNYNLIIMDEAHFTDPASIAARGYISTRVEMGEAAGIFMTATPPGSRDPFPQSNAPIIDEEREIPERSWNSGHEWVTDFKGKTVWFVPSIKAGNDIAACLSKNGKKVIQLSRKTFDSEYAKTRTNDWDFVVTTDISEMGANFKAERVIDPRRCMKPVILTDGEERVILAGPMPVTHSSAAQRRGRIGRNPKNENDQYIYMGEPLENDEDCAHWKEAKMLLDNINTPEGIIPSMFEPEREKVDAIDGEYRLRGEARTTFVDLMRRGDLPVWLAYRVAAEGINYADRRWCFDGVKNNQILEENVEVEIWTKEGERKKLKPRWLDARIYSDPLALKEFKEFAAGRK

| Compound | IC50 [1] | IC50 [2] |
| --- | --- | --- |
| O=C(NCC(F)F)[C@H](Nc1ccc2c(c1)CNC2)c1cc(Cl)cc(Cl)c1Cl | > 99.5 µM | > 100 µM |
| O=C(Nc1ccc2c(c1)CNC2)c1cc(F)cc(-c2cnc3n2CCC3)c1 | > 99.5 µM | > 100 µM |
| CCc1cc2c(cc1NC(=O)c1cc(F)cc3[nH]ncc13)CNC2 | > 99.5 µM | > 100 µM |
| COc1ccc(Cl)cc1[C@H](Nc1ccc2c(c1)CNC2)C(=O)NCC(F)F | > 99.5 µM | > 100 µM |
| O=C1Cc2c(cccc2C(=O)N[C@H]2CCC23CCOCC3)N1 | > 99.5 µM | > 100 µM |
| Cc1c(C(=O)Nc2cc(C(=O)N3CC[C@H](O)C3)ccn2)cc(C2CC2)n1C | > 99.5 µM | > 100 µM |
| NCc1ccc(-c2csc3cc(C(=O)Nc4ccc5c(c4)CNC5)ccc23)cc1 | 28.4 µM and 18.3 µM | > 100 µM |
| CS(=O)(=O)c1cc2c(cc1NC(=O)c1cc(F)cc3[nH]ncc13)CNC2 | > 99.5 µM | > 100 µM |
| Cc1c(C(=O)Nc2cc(C(=O)N3CC[C@H](CO)C3)ccn2)cc(C2CC2)n1C | > 99.5 µM | > 100 µM |
| Cc1ccc(-c2nc3c(C(=O)Nc4ccc5c(c4)CNC5)cc(F)cc3[nH]2)cc1 | 16.4 µM and 39.9 µM | 70.2 µM |
| Cc1c(C(=O)Nc2cc(C(=O)N3CC(CO)C3)ccn2)cc(C2CC2)n1C | > 99.5 µM | > 100 µM |
| C[C@H](NC(=O)c1cccc2c1CC(=O)N2)c1cccc(S(C)(=O)=O)c1 | > 99.5 µM | > 100 µM |
| Cc1cc([C@H](Nc2ccc3c(c2)CNC3)C(=O)NCC(F)F)cc(C(F)(F)F)c1 | > 99.5 µM | > 100 µM |
| O=C(Nc1ccc2c(c1)CN[C@H]2[C@H](O)CO)c1cc(F)cc2[nH]ncc12 | > 99.5 µM | > 100 µM |
| O=C(NCC(F)F)[C@H](Nc1ccc2c(c1)CNC2)c1cc(Cl)cc2c1CCC2 | > 99.5 µM | > 100 µM |
| NCCc1cc(C(=O)Nc2cc(-c3cccnc3)ccn2)no1 | > 99.5 µM | > 100 µM |
| O=C(NCC(F)F)[C@H](Nc1ccc2c(c1)CNC2)c1cc(Cl)cc2ccoc12 | > 99.5 µM | > 100 µM |
| O=C(Nc1ccc2c(c1)CNC2)c1cccc2c(C3CNC3)n[nH]c12 | 19 µM and 17.2 µM | 22.7 µM and 26.4 µM |
| Cc1c(C(=O)Nc2cc(C(=O)N(C)[C@H]3C[C@H](O)C3)ccn2)cc(C2CC2)n1C | > 99.5 µM | > 100 µM |
| Cc1c(C(=O)Nc2cc(C(=O)N3Cc4cn[nH]c4C3)ccn2)cc(C2CC2)n1C | > 99.5 µM | > 100 µM |
| CNC(=O)C[C@H]1CC[C@@H](NC(=O)c2cccc3c2CC(=O)N3)CC1 | > 99.5 µM | > 100 µM |

| Compound | IC50 [1] | IC50 [2] |
| --- | --- | --- |
| O=C1Cc2c(cccc2C(=O)N[C@H]2CCSC3(CCOCC3)C2)N1 | > 99.5 µM | > 100 µM |
| CO[C@H]1CCCN(C(=O)c2ccnc(NC(=O)c3cc(C4CC4)n(C)c3C)c2)C1 | > 99.5 µM | > 100 µM |
| Cn1ccc(-c2cc(F)cc(C(=O)Nc3ccc4c(c3)CNC4)c2)cc1=O | > 99.5 µM | > 100 µM |
| COCCO[C@]1(C)C(=O)Nc2cc(F)cc(C(=O)Nc3ccc4c(c3)CNC4)c21 | > 99.5 µM | > 100 µM |
| O=C(Nc1ccc2c(c1)CNC2)c1cc(F)cc2[nH]c(-c3ccc(F)cc3O)nc12 | 62.1 µM | > 100 µM |
| O=C1Cc2c(cccc2C(=O)N[C@H]2C[C@H](Cn3ccnc3)C2)N1 | > 99.5 µM | > 100 µM |
| Cc1c(C(=O)Nc2cc(C(=O)N3CCC(O)CC3)ccn2)cc(C2CC2)n1C | > 99.5 µM | > 100 µM |
| Cc1c(C(=O)Nc2cc(C(=O)N3CCNC(=O)C3)ccn2)cc(C2CC2)n1C | > 99.5 µM | > 100 µM |
| Cn1nccc1-c1cc(NC(=O)c2cc(F)cc3[nH]ncc23)cc2c1CNC2 | 54.1 µM | 81.4 µM |
| Cc1c(C(=O)Nc2cc(C(N)=O)ccn2)cc(C2CC2)n1C | > 99.5 µM | > 100 µM |
| CN1CCc2c([nH]c3ccc(C(=O)Nc4ccc5c(c4)CNC5)cc23)C1=O | > 99.5 µM | > 100 µM |
| C=CC[C@H]1NCc2cc(NCc3cc(Cl)cc4[nH]ncc34)ccc21 | > 99.5 µM | > 100 µM |
| O=C(Nc1ccc2c(c1)CNC2)c1cc(F)cc2[nH]c(CCc3cccnc3)nc12 | > 99.5 µM | > 100 µM |
| Cc1c(C(=O)Nc2cc(C(=O)N3CCOC[C@H](O)C3)ccn2)cc(C2CC2)n1C | > 99.5 µM | > 100 µM |
| Cc1c(C(=O)Nc2cc(C(=O)N3CCOCC3)ccn2)cc(C2CC2)n1C | > 99.5 µM | > 100 µM |
| Cc1c(C(=O)Nc2cc(C(=O)N3CCCNC(=O)C3)ccn2)cc(C2CC2)n1C | > 99.5 µM | > 100 µM |
| O=C(Nc1ccc2c(c1)CN[C@H]2CO)c1cc(F)cc2[nH]ncc12 | > 99.5 µM | > 100 µM |
| Cc1c(C(=O)Nc2cc(Br)c3c(c2)COC3)cc(C2CC2)n1C | > 99.5 µM | > 100 µM |
| NCc1csc2cc(C(=O)Nc3cc([C@H]4CCOC4)ccn3)ccc12 | > 99.5 µM | > 100 µM |
| COc1ccc(-c2nc3c(C(=O)Nc4ccc5c(c4)CNC5)cc(F)cc3[nH]2)cc1 | > 99.5 µM | > 100 µM |
